Measured values published in patent publication US8198317B2, “Methylenedioxy phenolic compounds and their use to treat disease” (The Ohio State University Research Foundation, priority 2008, dated 2012).

Tests used:
Patient = assay: Treatment of a patient with chronic myocardial infarction (Example 19); format: in vivo, human; conditions: 1.0 to 100 mg/kg with standard therapy
Experimental: A person with a prior history of a heart attack (myocardial infarction) 1 year ago presents for evaluation. They are asymptomatic. The patient is administered a composition comprising an effective amount of 3,4-Methylenedioxy 6-nitro phenyl lipoate (INV-7465) (1.0 to 100 mg/kg). Alternate therapies include, 3,4-methylenedioxy phenyl acetate (INV 73); 3,4-methylenedioxy-6-nitrophenol (INV 74); 3,4-methylenedioxy-6-nitrophenyl acetate (INV 75); 3,4-Methylenedioxy 6-nitro phenyl lipoate (INV-7465) or 3,4-Methylenedioxy phenyl lipoate (INV-7065). The composition is administered in conjunction with therapy such as aspirin, a drug to reduce the tendency of platelet aggregation, such as clopidogrel bisulfate, a statin, ezetimibe, an angiotensin converting enzyme inhibitor or angiotensin receptor blocker, and other anti-hypertensive agents such as beta-blockers, using dosages known to one of ordinary skill in the art. Patient notes added benefit in total and LDL cholesterol and a reduction in inflammatory markers such as C reactive protein.

PCSK9 = PCSK9 expression in HepG2 cells; format: cell-based, human
From the text: Next we investigated the effect of INV-75 in regulating LDL receptor expression in the same cells using a similar protocol to assess dose and temporal dependence. FIGS. 5E and 5F depict the time course of LDL receptor expression and dose dependence in response to INV-75. […] INV-75 had no effects on SREBP-1 regulation (data not shown). Simultaneously multiple genes involved in cholesterol synthesis and regulation, apolipoprotein gene expression and expression of PCSK9 (Proprotein convertase subtilisin/kexin type 9) was tested. The latter gene is known to regulate LDL receptor expression by binding to the epidermal growth factor-like repeat A (EGF-A) domain of the low-density lipoprotein receptor (LDLR), inducing LDLR degradation. Inhibition of PSCK9 function is currently being explored as a means of lowering cholesterol levels.

PPARα = target: T1, PPARα (Homo sapiens, UniProt Q07869); assay: GAL4-PPARα-LBD luciferase assay in HepG2 cells; format: cell-based
T1 construct: HepG2 cells transfected with yeast GAL4-PPARα-LBD plasmid+UAS-Luciferase; expressed in transfected cells; host or cells: HepG2
From the text: (§1) We used a reporter gene assay in HepG2 cells to screen for agonists of the peroxisome proliferator-activated receptors. Peroxisome proliferator-activated receptors (PPARs) and other members of the nuclear hormone receptor family are important drug targets for the treatment of metabolic diseases. PPARs play crucial roles in lipid and glucose metabolism, respectively. Therefore, screening methods that help to rapidly identify activators of these receptors should be of considerable value. INV-75 activated a classic PPARα gene, Acetyl-CoA Oxidase (ACO) in a dose dependent and time dependent fashion (FIG. 6A). The time course experiment was performed in presence of INV-75 up to 15 hours. […] We next tested the specificity of INV-75 for PPARα by performing experiments in HepG2 cells transfected with yeast GAL4-PPARα-LBD plasmid+UAS-Luciferase; GAL4-PPARδ-LBD plasmid+UAS-Luciferase and […]. The PPARα, PPARδ and PPARγ binding assays were performed using multiple concentrations of INV-75 (1 μM, 10 μM, 100 μM and 1000 μM). The level of luciferase activity corresponded to the degree of PPAR activation. The results were compared with classic PPAR agonists such as WY-14643 (PPARα agonist), Bezafibrate (PPARδ agonist) and Rosiglitazone ([…]).

PPARγ = target: T2, PPARγ (Homo sapiens, UniProt P37231); assay: GAL4-PPARγ-LBD luciferase assay in HepG2 cells; format: cell-based; conditions: 1 μM to 1000 μM
T2 construct: GAL4-PPARδ-LBD plasmid+UAS-Luciferase and GAL4-PPARα-LBD plasmid+UAS-Luciferase; expressed in transfected cells; host or cells: HepG2
From the text: as §1

Patients = assay: Treatment of dyslipidemia in diabetic patients (Example 25); format: in vivo, human; conditions: oral, 12 months
From the text: Individuals with Type I and Type II diabetes are at risk for future cardiovascular events such as heart attacks, strokes and kidney disease. These individuals often have abnormalities in lipids such as elevations in triglycerides and VLDL cholesterol. They are on treatments such as hypolipidemic drug therapy such as statins and fibrates (Gemfibrozil or Fenofibrate) to lover cholesterol levels in conjunction with glycemia lowering strategies such as Insulin, PPAR γ agents, Metformin or sulfonylurea therapy. In addition to these treatments they will also receive an acceptable dose of a composition comprising a compound of the present invention in an acceptable carrier orally chronically for durations in excess of 12 months. In one study, (3,4-methylenedioxy phenyl acetate (INV 73); 3,4-methylenedioxy-6-nitrophenol (INV 74); 3,4-methylenedioxy-6-nitrophenyl acetate (INV 75); are administered to these individuals. The patients undergo lipid measurements at baseline and at the end of treatment for a 12 month duration. At the end of 12 months of treatment, there is lowering of VLDL cholesterol and a decrease in triglycerides.

T1 sequence (Q07869 239-466 limits assumed): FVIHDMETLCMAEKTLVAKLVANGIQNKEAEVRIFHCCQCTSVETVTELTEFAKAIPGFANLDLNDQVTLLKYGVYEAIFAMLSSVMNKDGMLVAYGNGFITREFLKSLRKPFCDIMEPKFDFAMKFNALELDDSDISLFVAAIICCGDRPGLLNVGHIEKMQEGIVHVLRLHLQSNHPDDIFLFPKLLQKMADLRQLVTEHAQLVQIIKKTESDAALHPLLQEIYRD
T2 sequence (P37231 238-503 limits assumed, species assumed): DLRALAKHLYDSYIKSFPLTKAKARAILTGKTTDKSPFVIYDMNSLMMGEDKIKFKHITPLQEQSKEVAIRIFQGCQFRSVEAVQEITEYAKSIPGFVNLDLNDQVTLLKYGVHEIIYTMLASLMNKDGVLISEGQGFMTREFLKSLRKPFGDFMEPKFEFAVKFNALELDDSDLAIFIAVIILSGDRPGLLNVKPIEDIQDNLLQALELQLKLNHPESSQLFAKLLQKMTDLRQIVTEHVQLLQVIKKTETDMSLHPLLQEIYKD

Row | Structure (SMILES) | inflammatory markers such as C reactive protein (Patient) | total and LDL cholesterol (Patient) | PCSK9 expression (PCSK9) | agonist properties on PPARα activation (PPARα) | PPARα ligand binding activity (PPARα; 1 μM to 1000 μM) | effects on PPARγ (PPARγ) | VLDL cholesterol (Patients) | triglycerides (Patients)
1 | O=C(CCCCC1CCSS1)Oc1cc2c(cc1[N+](=O)[O-])OCO2 (centres unmarked) [INV-7465, 3,4-Methylenedioxy 6-nitro phenyl lipoate] | reduction | added benefit |  |  |  |  |  | 
2 | CC(=O)Oc1cc2c(cc1[N+](=O)[O-])OCO2 [INV-75, 3,4-methylenedioxy-6-nitrophenyl acetate] |  |  | no effects | selective but partial agonist | increased | without effects | lowering | decrease
